Drawing on patent publication US12617784B2, “AKT inhibitor” (Nanjing Chia Tai Tianqing Pharmaceutical Co., Ltd., priority 2019, dated 2026), this text covers IC50 for 29 molecules.

As usually defined, the IC50 is the point on the concentration scale where inhibition reaches its midpoint. Higher therefore signals weaker potency in that assay.

The target of one experiment is AKT1 (Homo sapiens, UniProt P31749). Description: In vitro enzyme activity test (HTRF kinEASE TK), AKT1. Type of experiment: biochemical. Particulars: ATP 2 μM, enzyme 0.6 ng/well, reaction 50 min. On the procedure: (§1) Experimental Procedure 2.1 Preparation of Reagents
(§2) 1 mL 1× Kinase Reaction Buffer of Kinase AKT1, AKT2 and AKT3 contain 200 μL 5× Kinase Reaction Buffer, 5 μL 1 M MgCl2, 1 μL 1 M DTT and 794 μL ultrapure water.
(§3) In addition to the control wells, 4 μL of the diluted compound working solutions were added to all reaction wells.
(§4) b) 2 μL of the previously prepared TK-biotin substrate solution was added to all reaction wells.
(§5) c) 2 μL of the previously prepared enzyme solution was added to all reaction wells, except the negative wells. The volume of the negative well was filled with 2 μL of enzyme corresponding to 1× kinase reaction buffer. The plate was sealed with sealing film. After mixing, the plate was incubated at room temperature for 10 min to allow the compound and enzyme to fully combined.
(§6) d) 2 μL of ATP solution was added to all reaction wells to start the kinase reaction.
(§7) e) The test solution was prepared 5 min before the end of the kinase reaction.
(§8) f) After the kinase reaction was completed, 5 μL of diluted streptavidin-XL665 were added to all reaction wells, and immediately the diluted europium-labeled tyrosine kinase substrate antibody detection solution was added after mixing.
(§9) g) The plate was sealed and mixed well. […] The inhibition rate of each well was calculated through the fully active wells and the background signal wells, taking the average value in case of multiple wells. Meanwhile, the professional drawing analysis software PRISM 6.0 was used to fit the half maximal inhibitory concentration (IC50) of each test compound.
(In general: TR-FRET usually uses a lanthanide donor and a delayed reading to cut background.)

Another experiment concerns the target T1, AKT3 (Homo sapiens, UniProt Q9Y243).
T1 construct: purchased Invitrogen PV3185
Description: In vitro enzyme activity test (HTRF kinEASE TK), AKT3. The format is biochemical. Particulars: enzyme 0.3 ng/well, reaction 50 min. On the procedure:
as §1, §2, §3, §4, §5, §6, §7, §8, §9

Structures can show the parent of a compound that is named as a salt.

AKT1, sequence (P31749 whole entry): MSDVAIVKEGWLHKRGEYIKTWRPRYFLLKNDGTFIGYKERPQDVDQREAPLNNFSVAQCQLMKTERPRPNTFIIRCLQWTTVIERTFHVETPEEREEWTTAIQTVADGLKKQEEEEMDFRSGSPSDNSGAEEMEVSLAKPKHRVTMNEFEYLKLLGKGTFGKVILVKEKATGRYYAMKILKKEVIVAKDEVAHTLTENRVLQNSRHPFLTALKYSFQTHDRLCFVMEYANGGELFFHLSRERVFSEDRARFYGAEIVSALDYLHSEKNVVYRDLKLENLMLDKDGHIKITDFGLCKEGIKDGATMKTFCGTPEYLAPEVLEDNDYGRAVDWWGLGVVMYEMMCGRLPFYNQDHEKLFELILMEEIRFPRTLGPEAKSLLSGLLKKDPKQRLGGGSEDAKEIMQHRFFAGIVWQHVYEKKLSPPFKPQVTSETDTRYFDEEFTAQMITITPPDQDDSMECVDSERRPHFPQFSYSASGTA
T1 sequence (Q9Y243 whole entry): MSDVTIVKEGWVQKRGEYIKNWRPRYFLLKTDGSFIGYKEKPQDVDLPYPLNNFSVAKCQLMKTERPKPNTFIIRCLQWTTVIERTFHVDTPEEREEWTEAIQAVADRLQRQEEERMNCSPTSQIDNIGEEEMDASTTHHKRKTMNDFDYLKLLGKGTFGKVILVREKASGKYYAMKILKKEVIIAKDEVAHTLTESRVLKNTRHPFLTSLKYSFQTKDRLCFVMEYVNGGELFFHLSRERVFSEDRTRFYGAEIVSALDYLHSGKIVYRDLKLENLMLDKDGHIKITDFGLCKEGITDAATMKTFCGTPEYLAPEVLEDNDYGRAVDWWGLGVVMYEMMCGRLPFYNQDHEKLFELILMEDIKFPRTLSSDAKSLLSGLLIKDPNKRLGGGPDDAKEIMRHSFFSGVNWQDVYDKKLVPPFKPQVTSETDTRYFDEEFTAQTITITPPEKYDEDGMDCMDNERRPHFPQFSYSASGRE

With `CC(C)NC[C@@H](C(=O)N1CCN(c2ncnc3c2[C@@H](C(F)(F)F)CC(=O)N3)CC1)c1ccc(Cl)cc1` (single isomer, unassigned) [Example 16 Isomer 1], the IC50 on AKT1 turned out to be 776 nM; at AKT3, 139 nM.

As for `CC(C)NC[C@@H](C(=O)N1CCN(c2ncnc3c2[C@H](C(F)(F)F)CC(=O)N3)CC1)c1ccc(Cl)cc1` (single isomer, unassigned) [Example 16 Isomer 2], the half-inhibitory concentration (IC50) against AKT1 turned out to be 12 nM; against AKT3 it was 1 nM.

On to `CC(C)NC[C@@H](C(=O)N1CCN(c2ncnc3c2C[C@@H](C)C(=O)N3)CC1)c1ccc(Cl)cc1` (single isomer, unassigned) [Example 19 Isomer 1], for which the values for the IC50 at AKT1 and against AKT3 were 82 nM and 18 nM, respectively.

Consider `CC(C)NC[C@@H](C(=O)N1CCN(c2ncnc3c2C[C@H](C)C(=O)N3)CC1)c1ccc(Cl)cc1` (single isomer, unassigned) [Example 19 Isomer 2], for which the IC50 against AKT1 turned out to be 25 nM; against AKT3 it was 9.1 nM.

Regarding `CC(C)NC[C@@H](C(=O)N1CCN(c2ncnc3c2[C@H](C)OC(=O)N3)CC1)c1ccc(Cl)cc1` (single isomer, unassigned) [Example 23 Isomer 1], the IC50 is 1.5 nM against AKT1 and 0.19 nM against AKT3.

In the case of `CC(C)NC[C@@H](C(=O)N1CCN(c2ncnc3c2[C@@H](C)OC(=O)N3)CC1)c1ccc(Cl)cc1` (single isomer, unassigned) [Example 23 Isomer 2], the IC50 against AKT1 worked out at 201 nM; at AKT3, 42 nM.

As to `CC(C)NC[C@@H](C(=O)N1CCN(c2ncnc3c2[C@H](C)OC(=O)N3)CC1)c1ccc(Cl)cc1` (single isomer, unassigned) [Example 24 Isomer 1], the IC50 was found to be 354 nM on AKT1 and 61 nM on AKT3.

For the molecule `CC(C)NC[C@@H](C(=O)N1CCN(c2ncnc3c2N(C)CC(=O)N3)[C@H]2C[C@H]21)c1ccc(Cl)cc1` (single isomer, unassigned) [Example 27 Isomer 1], the results for the IC50 at AKT1 and on AKT3 were 22 nM and 0.48 nM, respectively.

Consider `CC(C)NC[C@@H](C(=O)N1C2CCC1CN(c1ncnc3c1[C@H](C)OC(=O)N3)C2)c1ccc(Cl)cc1` (single isomer, unassigned) [Example 32 Isomer 1], for which the IC50 was determined as 0.63 nM against AKT1 and 0.41 nM against AKT3.

For the molecule `CC(C)NC[C@@H](C(=O)N1C2CCC1CN(c1ncnc3c1[C@@H](C)OC(=O)N3)C2)c1ccc(Cl)cc1` (single isomer, unassigned) [Example 32 Isomer 2], the IC50 on AKT1 is 25 nM; against AKT3, 9.8 nM.

As to `CC(C)NC[C@@H](C(=O)N1CC2CCC(C1)N2c1ncnc2c1[C@H](C)OC(=O)N2)c1ccc(Cl)cc1` (single isomer, unassigned) [Example 33 Isomer 1], the IC50 is 1.6 nM against AKT1 and 0.2 nM against AKT3.

Turning to `CC(C)NC[C@@H](C(=O)N1CC2CCC(C1)N2c1ncnc2c1[C@@H](C)OC(=O)N2)c1ccc(Cl)cc1` (single isomer, unassigned) [Example 33 Isomer 2], the IC50 against AKT1 was 260 nM; at AKT3, 55 nM.

As to `CC(C)NC[C@@H](C(=O)N1CCN(c2ncnc3c2[C@H](C)OC(=O)N3)[C@@H]2C[C@@H]21)c1ccc(Cl)cc1` (single isomer, unassigned) [Example 34 Isomer 1], the IC50 amounted to 186 nM at AKT1 and 45 nM against AKT3.

`CC(C)NC[C@@H](C(=O)N1CCN(c2ncnc3c2[C@@H](C)OC(=O)N3)[C@@H]2C[C@@H]21)c1ccc(Cl)cc1` (single isomer, unassigned) [Example 34 Isomer 2]: the 50% inhibitory concentration (IC50) on AKT1 is 613 nM; on AKT3, 89 nM.

Turning to `CC(C)NC[C@@H](C(=O)N1CCN(c2ncnc3c2[C@@H](C)OC(=O)N3)[C@H]2C[C@H]21)c1ccc(Cl)cc1` (single isomer, unassigned) [Example 34 Isomer 3], the IC50 came to 429 nM on AKT1 and 232 nM on AKT3.

With `CC(C)NC[C@@H](C(=O)N1CCN(c2ncnc3c2[C@@H]2C[C@@H]2C(=O)N3)CC1)c1ccc(Cl)cc1` (single isomer, unassigned) [Example 40 Isomer 1], the IC50 amounted to 14 nM at AKT1 and 12 nM against AKT3.

As to `CC(C)NC[C@@H](C(=O)N1CCN(c2ncnc3c2[C@H]2C[C@H]2C(=O)N3)CC1)c1ccc(Cl)cc1` (single isomer, unassigned) [Example 40 Isomer 2], the IC50 was 82 nM against AKT1 and 61 nM against AKT3.

On to `CC(C)NC[C@@H](C(=O)N1CCN(c2ncnc3c2C(C)CC(=O)N3)CC1)c1ccc(Cl)cc1` (stereo partly drawn) [Example 1, 4-(4-((S)-2-(4-chlorophenyl)-3-(isopropylamino)propionyl)piperazin-1-yl)-5-methyl-5,8-dihydropyrido[2,3-d]pyrimidin-7(6H)-one], for which the IC50 against AKT1 turned out to be 2.4 nM; on AKT3, 1.6 nM.

Regarding `CC(C)NC[C@@H](C(=O)N1CCN(c2ncnc3c2CCC(=O)N3)CC1)c1ccc(Cl)cc1` [Example 3, (S)-4-(4-(2-(4-chlorophenyl)-3-(isopropylamino)propionyl)piperazin-1-yl)-5,8-dihydropyrido[2,3-d]pyrimidin-7(6H)-one], the IC50 against AKT1 is 52.4 nM; at AKT3, 7.5 nM.

In the case of `CC(C)NC[C@@H](C(=O)N1CCN(c2ncnc3c2[C@H](C)CC(=O)N3)[C@H](C)C1)c1ccc(Cl)cc1` [Example 7, (R)-4-((R)-4-((S)-2-(4-chlorophenyl)-3-(isopropylamino)propionyl)-2-methylpiperazin-1-yl)-5-methyl-5,8-dihydropyrido[2,3-d]pyrimidin-7(6H)-one], the IC50 at AKT1 amounted to 26.4 nM; on AKT3, 7.4 nM.

Take `CC(C)NC[C@@H](C(=O)N1CCN(c2ncnc3c2[C@H](C)CC(=O)N3)C[C@H]1C)c1ccc(Cl)cc1` [Example 8, (R)-4-((R)-4-((S)-2-(4-chlorophenyl)-3-(isopropylamino)propionyl)-3-methylpiperazin-1-yl)-5-methyl-5,8-dihydropyrido[2,3-d]pyrimidin-7(6H)-one]: the IC50 at AKT1 came to 28.7 nM; against AKT3, 2.7 nM.

For the molecule `CC(C)NC[C@@H](C(=O)N1CC2CCC(C1)N2c1ncnc2c1[C@H](C)CC(=O)N2)c1ccc(Cl)cc1` [Example 11, (R)-4-(3-((S)-2-(4-chlorophenyl)-3-(isopropylamino)propionyl)-3,8-diazabicyclo[3.2.1]octan-8-yl)-5-methyl-5,8-dihydropyrido[2,3-d]pyrimidin-7(6H)-one], the IC50 was 3.5 nM against AKT1 and 0.25 nM against AKT3.

For `CC(C)NC[C@@H](C(=O)N1CCN(c2ncnc3c2[C@H](C)CC(=O)N3)CC12CC2)c1ccc(Cl)cc1` [Example 12, (R)-4-(4-((S)-2-(4-chlorophenyl)-3-(isopropylamino)propionyl)-4,7-diazaspiro[2.5]octan-7-yl)-5-methyl-5,8-dihydropyrido[2,3-d]pyrimidin-7(6H)-one], the IC50 on AKT1 amounted to 55.1 nM; on AKT3, 4.8 nM.

For `CC(C)NC[C@@H](C(=O)N1C[C@@H]2CN(c3ncnc4c3[C@H](C)CC(=O)N4)C[C@@H]2C1)c1ccc(Cl)cc1` [Example 13 cis-isomer, cis-(5R)-4-(5-((S)-2-(4-chlorophenyl)-3-(isopropylamino)propionyl)hexahydropyrrole[3,4-c]pyrrole-2(1H)-yl)-5-methyl-5,8-dihydropyrido[2,3-d]pyrimidin-7(6H)-one], the IC50 against AKT1 worked out at 285 nM; on AKT3 it was 6.6 nM.

For `CC(C)NC[C@@H](C(=O)N1CCN(c2ncnc3c2CC(C)C(=O)N3)CC1)c1ccc(Cl)cc1` (stereo partly drawn) [Example 19, 4-(4-((S)-2-(4-chlorophenyl)-3-(isopropylamino)propionyl)piperazin-1-yl)-6-methyl-5,8-dihydropyrido[2,3-d]pyrimidin-7(6H)-one hydrochloride], the IC50 worked out at 58.5 nM at AKT1 and 7.4 nM on AKT3.

Turning to `CC(C)NC[C@@H](C(=O)N1CCN(c2ncnc3c2N(C)CC(=O)N3)CC1)c1ccc(Cl)cc1` [Example 20, (S)-4-(4-(2-(4-chlorophenyl)-3-(isopropylamino)propionyl)piperazin-1-yl)-5-methyl-5,8-dihydropteridine-7(6H)-one hydrochloride], the IC50 on AKT1 stood at 1.1 nM; against AKT3, 0.4 nM.

In the case of `CC(C)NC[C@@H](C(=O)N1CCN(c2ncnc3c2C(C)OC(=O)N3)CC1)c1ccc(Cl)cc1` (stereo partly drawn) [Example 23, 5-(4-((S)-2-(4-chlorophenyl)-3-(isopropylamino)propionyl)piperazin-1-yl)-4-methyl-1,4-dihydro-2H-pyrimido[4,5-d][1,3]oxazin-2-one formate], the IC50 against AKT1 stood at 6 nM; against AKT3 it was 1.2 nM.

For `CC(C)NC[C@@H](C(=O)N1CC2CCC(C1)N2c1ncnc2c1N(C)CC(=O)N2)c1ccc(Cl)cc1` [Example 26], the half-maximal inhibitory concentration (IC50) against AKT1 was determined as 30 nM; on AKT3 it was 0.52 nM.

As to `CC(C)NC[C@@H](C(=O)N1CCN(c2ncnc3c2N(C)C(=O)CN3)CC1)c1ccc(Cl)cc1` [Example 35, (S)-4-(4-(2-(4-chlorophenyl)-3-(isopropylamino)propionyl)piperazin-1-yl)-5-methyl-7,8-dihydropteridine-6(5H)-one], the IC50 was 146 nM against AKT1 and 212 nM against AKT3.
